11 compounds from ChEMBL document CHEMBL1201862, “PubChem BioAssay data set” (2004) can be followed below.

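Compound exposure: 48 hours, 5 concentrations, 96-well plates. The concentration for 50% growth inhibition is given as GI50.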 Activity calls are given as the source filed them. Rule as the data show it: active = GI50 up to about 1.1 µM and inactive = higher. *1 amine or outer side, *2 acyl side, *3 side chain or, on linkers, in order; H or OH if unused. Where a SMILES comes first, the peptide text is derived from it. The star is where a group is joined. γGlu = O=C(O)[CH](CCC(=O)[*:2])N[*:1]; NHOH = ON*

Among the test systems are MCF7; PC-3; NCI-H522; HOP-92; MDA-N; MOLT-4; HOP-62; IGROV-1; NCI/ADR-RES; 786-0; COLO 205; ACHN; OVCAR-3; SF-268; HCT-116; RPMI-8226; U-251; UACC-257; MDA-MB-435; Malme-3M.
Assay in all cases: NCI-60 cell line screen, 48 h

On to `Cc1csc(-c2cn(C)c3c2C(=O)C(=N)C=C3O)n1`, for which the GI50 was 3.27 µM (inactive) in the assay on MCF7; 7.01 µM (inactive) in the assay on PC-3; 13.6 µM (inactive) in the assay on NCI-H522; > 100 µM (inactive) with HOP-92; 14.1 µM (inactive) with MDA-N; 3.18 µM (inactive) with MOLT-4. Further, the GI50 is 6.89 µM (inactive) in the assay with HOP-62; 2.31 µM (inactive) in the assay on IGROV-1; 9.98 µM (inactive) in the assay with NCI/ADR-RES; 32.4 µM (inactive) with 786-0; 4.53 µM (inactive) in the assay on COLO 205; 3.71 µM (inactive) with ACHN. Also, the GI50 in the assay with OVCAR-3 was 6.41 µM (inactive); in the assay on SF-268, 15.8 µM (inactive); in the assay with HCT-116 it was 8.3 µM (inactive); with RPMI-8226, 2.83 µM (inactive); with U-251, 37.1 µM (inactive); in the assay on UACC-257 it was 4.26 µM (inactive). In the assay with MDA-MB-435, the GI50 was 4.28 µM (inactive).
For `Cn1c(-c2ccccc2)cc(-c2cccs2)c1-c1ccsc1`, the GI50 is 47.4 µM (inactive) with MCF7; > 100 µM (inactive) in the assay with PC-3; > 100 µM (inactive) in the assay with HOP-92; > 100 µM (inactive) in the assay with MDA-N; > 100 µM (inactive) in the assay with MOLT-4; > 100 µM (inactive) in the assay on HOP-62. Also, the GI50 in the assay on IGROV-1, with NCI/ADR-RES, with 786-0, with COLO 205, with ACHN and in the assay on OVCAR-3 was > 100 µM (inactive) in each case. For the same compound, the GI50 was > 100 µM (inactive) with SF-268; 61.5 µM (inactive) in the assay on HCT-116; 64.1 µM (inactive) with RPMI-8226; > 100 µM (inactive) in the assay with U-251; > 100 µM (inactive) with UACC-257; > 100 µM (inactive) in the assay on MDA-MB-435.
With `COc1cccc(NC(=O)CC(=O)N2N=C(C)C(/N=N/c3ccc(C(=O)O)cc3)C2=O)c1` (stereo unspecified), the GI50 is > 100 µM (inactive) in the assay with MCF7; > 100 µM (inactive) in the assay with PC-3; 43.1 µM (inactive) with NCI-H522; > 100 µM (inactive) with MDA-N; 56.6 µM (inactive) with Malme-3M; > 100 µM (inactive) in the assay with HOP-62. Also, the GI50 with IGROV-1 was 46.7 µM (inactive); with NCI/ADR-RES, > 100 µM (inactive); in the assay on 786-0, > 100 µM (inactive); in the assay with COLO 205, > 100 µM (inactive); in the assay on ACHN, > 100 µM (inactive); in the assay on OVCAR-3, > 100 µM (inactive). The GI50 in the assay on SF-268, in the assay with HCT-116, with RPMI-8226, in the assay on UACC-257 and in the assay on MDA-MB-435 was > 100 µM (inactive) in each case.
Take `CNC(=O)Oc1ccc(-c2cn3cc(OC(=O)NC)ccc3n2)cc1`: the GI50 with MCF7 was 32.4 µM (inactive); in the assay on PC-3, 49.9 µM (inactive); in the assay with HOP-92, > 100 µM (inactive); in the assay on MDA-N it was 32.8 µM (inactive); in the assay on MOLT-4 it was 20.5 µM (inactive); in the assay with HOP-62 it was 80.4 µM (inactive). Further, the GI50 with IGROV-1 is 54 µM (inactive); with NCI/ADR-RES, 79.1 µM (inactive); in the assay with 786-0 it was 26.7 µM (inactive); in the assay on COLO 205, 41.4 µM (inactive); in the assay on ACHN, 29 µM (inactive); in the assay with OVCAR-3 it was 67.8 µM (inactive). Moreover, the GI50 with SF-268 is 19.3 µM (inactive); in the assay on HCT-116 it was 33.1 µM (inactive); with RPMI-8226 it was 19.8 µM (inactive); with U-251, 36.9 µM (inactive); with UACC-257, > 100 µM (inactive); in the assay with MDA-MB-435 it was 31.7 µM (inactive).
`COCN1C(=O)[C@@H]2CCCN2C(=O)c2ccc(N)cc21`: the GI50 with MCF7, in the assay with PC-3, in the assay on NCI-H522, with HOP-92, in the assay with MDA-N and in the assay with MOLT-4 was > 100 µM (inactive) in each case. Besides, the GI50 in the assay with HOP-62, in the assay with IGROV-1, in the assay with NCI/ADR-RES, with 786-0, in the assay on COLO 205 and with ACHN was > 100 µM (inactive) throughout. Further, the GI50 in the assay with OVCAR-3, in the assay on SF-268, in the assay on HCT-116, in the assay on RPMI-8226, in the assay with U-251 and in the assay on UACC-257 was > 100 µM (inactive) in each case. Moreover, the GI50 in the assay with MDA-MB-435 is > 100 µM (inactive).
Consider `NC(CCC(=O)NC(CCC(=O)NO)C(=O)NCC(=O)O)C(=O)O` (stereo unspecified) (γGlu-Glu(NHOH)-Gly-OH; configuration not given here), for which the GI50 with MCF7, in the assay with PC-3, with NCI-H522, with HOP-92, with MDA-N and in the assay with MOLT-4 was > 100 µM (inactive) in each case. For the same compound, the GI50 in the assay with HOP-62, in the assay with IGROV-1, with NCI/ADR-RES, in the assay on 786-0, in the assay on COLO 205 and with ACHN was > 100 µM (inactive) throughout. Also, the GI50 in the assay with OVCAR-3, with SF-268, in the assay on HCT-116, in the assay with RPMI-8226, in the assay with U-251 and in the assay with UACC-257 was > 100 µM (inactive) throughout. Moreover, the GI50 in the assay on MDA-MB-435 is > 100 µM (inactive).
Regarding `CN(CC(=O)O)c1ccc(/C=C/c2ccnc3ccccc23)cc1`, the GI50 with MCF7 is 5.02 µM (inactive); in the assay on PC-3 it was 27.4 µM (inactive); with NCI-H522, 5.47 µM (inactive); with HOP-92 it was 22.9 µM (inactive); with MDA-N it was 12.5 µM (inactive); in the assay with HOP-62, 31.3 µM (inactive). The GI50 was 13.9 µM (inactive) in the assay on IGROV-1; 29.2 µM (inactive) in the assay on NCI/ADR-RES; 28.1 µM (inactive) with 786-0; 16 µM (inactive) in the assay on COLO 205; 34.4 µM (inactive) in the assay with ACHN; 27.9 µM (inactive) in the assay on OVCAR-3. The GI50 with SF-268 is 19.1 µM (inactive); in the assay with HCT-116 it was 23.8 µM (inactive); with RPMI-8226, 13.3 µM (inactive); with U-251 it was 22.8 µM (inactive); with UACC-257 it was 25.4 µM (inactive); in the assay with MDA-MB-435 it was 14.1 µM (inactive).
Consider `Nc1nc(SC/C=C/c2ccccc2)c2[nH]cnc2n1`, for which the GI50 with MCF7 was > 100 µM (inactive); in the assay on PC-3 it was > 100 µM (inactive); in the assay on NCI-H522, 19.5 µM (inactive); with MDA-N it was > 100 µM (inactive); in the assay with Malme-3M, > 100 µM (inactive); with MOLT-4 it was > 100 µM (inactive). Besides, the GI50 is 83.2 µM (inactive) in the assay on HOP-62; 22.2 µM (inactive) in the assay with IGROV-1; 48.9 µM (inactive) in the assay with NCI/ADR-RES; > 100 µM (inactive) in the assay with 786-0; > 100 µM (inactive) in the assay with COLO 205; 97.9 µM (inactive) in the assay with ACHN. The GI50 is 30.4 µM (inactive) in the assay with OVCAR-3; 74.8 µM (inactive) with SF-268; > 100 µM (inactive) in the assay with HCT-116; 91.4 µM (inactive) in the assay with RPMI-8226; > 100 µM (inactive) in the assay on U-251; > 100 µM (inactive) in the assay with UACC-257. For the same compound, in the assay with MDA-MB-435, the GI50 was > 100 µM (inactive).
Take `Cc1c2cnccc2c(C)c2c1[nH]c1ccc(O)cc12`: the GI50 with MCF7 is 0.914 µM (active); in the assay on PC-3, 2.15 µM (inactive); in the assay with NCI-H522, 2.82 µM (inactive); in the assay on MDA-N, 2.79 µM (inactive); in the assay with Malme-3M it was 1.35 µM (inactive); in the assay on MOLT-4, 0.498 µM (active). In addition, the GI50 with HOP-62 was 1.02 µM (active); with IGROV-1, 1.85 µM (inactive); with NCI/ADR-RES it was 0.693 µM (active); in the assay with 786-0 it was 0.241 µM (active); in the assay with COLO 205 it was 2.68 µM (inactive); with ACHN, 1.32 µM (inactive). Further, the GI50 in the assay with OVCAR-3 was 1.13 µM (inactive); with SF-268, 1.01 µM (active); in the assay with HCT-116 it was 0.796 µM (active); with RPMI-8226, 1.59 µM (inactive); in the assay with U-251 it was 2.02 µM (inactive); in the assay with UACC-257 it was 2.73 µM (inactive). Also, the GI50 with MDA-MB-435 is 1.78 µM (inactive).
Take `O=C1/C(=C/c2ccc(Cl)cc2)CCC/C1=C\c1ccc(O)c(CN2CCCCC2)c1`: the GI50 with MCF7 is 47.1 µM (inactive); in the assay with PC-3 it was 8.91 µM (inactive); in the assay with HOP-92, 18.5 µM (inactive); in the assay with MDA-N, 12.9 µM (inactive); with Malme-3M, 21.4 µM (inactive); in the assay on MOLT-4, 24 µM (inactive). The GI50 in the assay on HOP-62 is 39 µM (inactive); with IGROV-1, 15.5 µM (inactive); in the assay with NCI/ADR-RES it was 12.9 µM (inactive); in the assay on 786-0, 15 µM (inactive); in the assay on COLO 205, 20.3 µM (inactive); in the assay on ACHN, 15.7 µM (inactive). For the same compound, the GI50 in the assay on OVCAR-3 was 24.1 µM (inactive); with HCT-116, 8.57 µM (inactive); in the assay with U-251 it was 16.6 µM (inactive); in the assay on UACC-257, 17.8 µM (inactive); in the assay on MDA-MB-435, 17 µM (inactive).
Turning to `O=C1Oc2ccccc2N/C1=C/C(=O)c1ccc(Cl)cc1`, the GI50 with MCF7 is 41.7 µM (inactive); in the assay with PC-3, 28.1 µM (inactive); with NCI-H522, 38.1 µM (inactive); in the assay on MDA-N it was 66.1 µM (inactive); with Malme-3M, > 100 µM (inactive); in the assay with MOLT-4 it was > 100 µM (inactive). The GI50 was > 100 µM (inactive) in the assay on HOP-62; > 100 µM (inactive) in the assay with IGROV-1; 39 µM (inactive) with NCI/ADR-RES; > 100 µM (inactive) in the assay on 786-0; > 100 µM (inactive) in the assay with COLO 205; > 100 µM (inactive) in the assay on ACHN. The GI50 in the assay with OVCAR-3 is 37.9 µM (inactive); in the assay on SF-268 it was > 100 µM (inactive); in the assay with HCT-116 it was 62.5 µM (inactive); with U-251, > 100 µM (inactive); in the assay on UACC-257 it was > 100 µM (inactive); with MDA-MB-435 it was 61.4 µM (inactive).
